Assay [1] concerns the target Mer (phospho-Mer, MERTK-transfected 293A cells) (Homo sapiens (Human), UniProt Q12866). Description: Mer autophosphorylation ELISA in transient transfected 293A cells (Example H). In kind it is cell-based. The settings on record: cellular activity; Mer autophosphorylation ELISA in transient transfected 293A cells. In outline: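 Human MERTK transiently transfected into 293A cells; compounds as 8-point dose curve in serum-free medium (0.3% DMSO final), 1 h. Lysates assayed by phospho-Mer sandwich ELISA against phospho-Mer standard; DMSO = 100%, reference inhibitor = 0% activity; IC50 from 4-parameter logistic fit.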
A general note: In an ELISA, binding on a coated surface is turned into a signal by an enzyme label.

The target of assay [2] is Human KDR (residues 790-1356) (Homo sapiens (Human), UniProt P35968). The assay is described as follows: Human KDR kinase assay, HTRF KinEase (Example B-2). The settings on record: protocol of Example B-2. It is filed as biochemical. In outline:
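Human KDR residues 790-1356 (0.1 ng/well) in buffer with 5 mM MgCl2, 1 mM MnCl2, 1 mM DTT, biotinylated peptide substrate, ATP at Km (4.0 μM), 3% DMSO, 10 compound concentrations; 40 min, room temperature. EDTA stop, streptavidin-XL665/Eu-TK antibody HTRF read 665/620 nm; 4-parameter IC50.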

Assay [3] concerns the target Human MER (residues 528-999) (Homo sapiens (Human), UniProt Q12866). The assay is described as follows: Human Mer kinase assay, HTRF KinEase (Example C-2). In kind it is biochemical. As to conditions: protocol of Example C-2. In outline:
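HTRF KinEase TK assay with MER 528-999 (1 ng/well) in enzymatic buffer plus 5 mM MgCl2 and 1 mM DTT, biotinylated peptide substrate and ATP at Km (40 μM), 3% DMSO final, 60 min at room temperature. Stopped with EDTA detection mix (SA-XL665, TK antibody-Eu3+), read at 665/620 nm after 60 min; IC50 from 10-point 4-parameter fit, normalized to DMSO and 1 μM reference.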

Assay [4] concerns the target KDR (phospho-KDR, VEGF165-stimulated HUVEC cells) (Homo sapiens (Human), UniProt P35968). Description: KDR autophosphorylation ELISA in HUVEC cells (Example G). As to conditions: cellular activity; KDR autophosphorylation ELISA in HUVEC cells. In kind it is cell-based. The method in brief:
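HUVEC cells, serum-starved 24 h, were treated 1 h with an 8-point compound dilution (0.3% DMSO) and then stimulated with 100 ng/mL VEGF165 for 5 min. Phospho-KDR in lysates was quantified by sandwich ELISA against a phospho-KDR standard. IC50 from a 4-parameter logistic fit, normalised between stimulated DMSO and unstimulated controls.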

What is called IC50 is the concentration needed to halve the response being measured.

Chain of KDR (phospho-KDR, VEGF165-stimulated HUVEC cells) (P35968 20-1356): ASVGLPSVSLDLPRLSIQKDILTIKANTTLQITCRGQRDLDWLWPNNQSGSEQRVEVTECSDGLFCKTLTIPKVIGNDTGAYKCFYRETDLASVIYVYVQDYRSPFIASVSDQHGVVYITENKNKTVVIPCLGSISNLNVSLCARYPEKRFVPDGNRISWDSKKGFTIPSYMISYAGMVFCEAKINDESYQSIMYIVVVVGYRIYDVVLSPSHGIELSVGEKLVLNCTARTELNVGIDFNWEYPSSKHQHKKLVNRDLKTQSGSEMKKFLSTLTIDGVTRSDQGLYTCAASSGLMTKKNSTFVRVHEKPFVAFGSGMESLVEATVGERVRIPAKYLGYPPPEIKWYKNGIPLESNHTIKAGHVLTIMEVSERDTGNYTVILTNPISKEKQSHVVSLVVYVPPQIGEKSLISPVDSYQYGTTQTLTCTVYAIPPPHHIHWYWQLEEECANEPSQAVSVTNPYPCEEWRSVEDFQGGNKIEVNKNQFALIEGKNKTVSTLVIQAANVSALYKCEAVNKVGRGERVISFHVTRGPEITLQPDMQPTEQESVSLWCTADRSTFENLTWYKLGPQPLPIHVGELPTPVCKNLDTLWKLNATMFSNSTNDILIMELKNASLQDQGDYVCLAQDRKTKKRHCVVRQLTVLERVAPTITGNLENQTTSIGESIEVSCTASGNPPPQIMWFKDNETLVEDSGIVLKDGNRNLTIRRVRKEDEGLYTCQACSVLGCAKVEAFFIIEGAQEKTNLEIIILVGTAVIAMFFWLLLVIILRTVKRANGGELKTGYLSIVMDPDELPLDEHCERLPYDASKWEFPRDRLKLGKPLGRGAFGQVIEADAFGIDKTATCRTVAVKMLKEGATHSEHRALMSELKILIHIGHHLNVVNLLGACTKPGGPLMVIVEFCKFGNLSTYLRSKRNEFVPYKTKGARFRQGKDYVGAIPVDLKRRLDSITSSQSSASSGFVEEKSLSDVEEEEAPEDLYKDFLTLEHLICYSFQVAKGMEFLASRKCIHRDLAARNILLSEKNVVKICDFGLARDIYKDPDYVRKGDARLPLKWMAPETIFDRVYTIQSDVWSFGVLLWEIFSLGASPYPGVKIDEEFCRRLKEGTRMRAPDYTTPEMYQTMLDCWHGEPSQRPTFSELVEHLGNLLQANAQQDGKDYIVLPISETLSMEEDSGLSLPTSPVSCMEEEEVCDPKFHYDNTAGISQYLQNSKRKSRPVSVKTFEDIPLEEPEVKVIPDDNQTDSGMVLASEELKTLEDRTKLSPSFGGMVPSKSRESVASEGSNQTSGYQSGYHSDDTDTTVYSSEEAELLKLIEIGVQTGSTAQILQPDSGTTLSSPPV
Chain of Mer (phospho-Mer, MERTK-transfected 293A cells) (Q12866 21-999): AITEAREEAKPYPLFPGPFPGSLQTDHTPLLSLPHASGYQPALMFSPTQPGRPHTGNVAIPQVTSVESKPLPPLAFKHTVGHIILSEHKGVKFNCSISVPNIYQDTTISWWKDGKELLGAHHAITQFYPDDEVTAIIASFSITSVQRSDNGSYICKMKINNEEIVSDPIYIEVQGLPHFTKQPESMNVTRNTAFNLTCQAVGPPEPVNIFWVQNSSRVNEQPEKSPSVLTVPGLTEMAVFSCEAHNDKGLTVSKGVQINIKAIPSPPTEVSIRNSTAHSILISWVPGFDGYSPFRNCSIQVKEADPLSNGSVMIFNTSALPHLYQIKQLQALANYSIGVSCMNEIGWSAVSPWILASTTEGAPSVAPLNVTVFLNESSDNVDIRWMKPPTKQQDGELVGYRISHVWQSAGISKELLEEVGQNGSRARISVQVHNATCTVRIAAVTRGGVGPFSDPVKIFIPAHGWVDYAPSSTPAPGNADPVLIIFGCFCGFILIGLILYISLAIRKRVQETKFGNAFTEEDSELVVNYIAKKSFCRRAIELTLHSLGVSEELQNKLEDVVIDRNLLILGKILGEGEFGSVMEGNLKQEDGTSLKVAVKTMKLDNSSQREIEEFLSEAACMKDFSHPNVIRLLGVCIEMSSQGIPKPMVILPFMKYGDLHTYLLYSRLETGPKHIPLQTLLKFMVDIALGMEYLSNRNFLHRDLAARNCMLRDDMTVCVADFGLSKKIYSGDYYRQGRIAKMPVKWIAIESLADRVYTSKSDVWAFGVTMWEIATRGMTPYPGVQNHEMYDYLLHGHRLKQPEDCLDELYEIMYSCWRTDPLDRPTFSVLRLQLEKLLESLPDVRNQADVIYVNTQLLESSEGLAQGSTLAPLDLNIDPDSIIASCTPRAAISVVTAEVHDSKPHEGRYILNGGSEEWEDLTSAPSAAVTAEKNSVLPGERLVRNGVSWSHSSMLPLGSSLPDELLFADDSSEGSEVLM
Chain of Human MER (residues 528-999) (Q12866 528-999): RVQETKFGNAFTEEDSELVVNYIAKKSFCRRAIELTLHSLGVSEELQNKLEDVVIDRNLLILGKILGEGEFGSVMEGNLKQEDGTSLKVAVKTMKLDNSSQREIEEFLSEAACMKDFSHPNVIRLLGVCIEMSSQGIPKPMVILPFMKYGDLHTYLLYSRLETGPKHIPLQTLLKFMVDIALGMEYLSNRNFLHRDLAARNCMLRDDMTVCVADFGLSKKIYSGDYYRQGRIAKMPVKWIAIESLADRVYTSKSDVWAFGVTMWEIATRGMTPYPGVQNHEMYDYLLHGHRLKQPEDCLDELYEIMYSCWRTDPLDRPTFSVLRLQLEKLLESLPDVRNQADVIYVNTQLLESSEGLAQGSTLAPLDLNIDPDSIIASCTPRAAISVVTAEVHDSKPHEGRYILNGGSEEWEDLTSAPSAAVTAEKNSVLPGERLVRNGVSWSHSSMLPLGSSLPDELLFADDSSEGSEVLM
Chain of Human KDR (residues 790-1356) (P35968 790-1356): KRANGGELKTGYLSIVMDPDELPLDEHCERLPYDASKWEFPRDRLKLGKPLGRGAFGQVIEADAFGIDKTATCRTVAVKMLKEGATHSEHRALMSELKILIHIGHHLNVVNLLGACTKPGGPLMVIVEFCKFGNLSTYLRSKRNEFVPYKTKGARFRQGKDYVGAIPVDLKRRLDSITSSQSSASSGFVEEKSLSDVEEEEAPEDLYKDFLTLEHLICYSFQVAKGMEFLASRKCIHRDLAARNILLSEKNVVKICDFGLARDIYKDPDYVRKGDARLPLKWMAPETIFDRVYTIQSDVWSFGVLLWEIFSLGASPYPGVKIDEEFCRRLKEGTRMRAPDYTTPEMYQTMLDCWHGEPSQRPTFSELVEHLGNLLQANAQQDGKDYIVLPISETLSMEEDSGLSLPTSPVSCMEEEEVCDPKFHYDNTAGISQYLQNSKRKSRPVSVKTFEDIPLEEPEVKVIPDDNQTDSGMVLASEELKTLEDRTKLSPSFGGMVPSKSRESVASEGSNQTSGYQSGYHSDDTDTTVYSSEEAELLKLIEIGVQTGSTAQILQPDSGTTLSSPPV

`COc1cnc2c(Oc3ccc(NC(=O)c4nnc(C)c(-c5ccc(F)cc5)c4OC)cc3)ccnc2c1` [Compound 515, 5-(4-fluorophenyl)-4-methoxy-N-[4-[(7-methoxy-1,5-naphthyridin-4-yl)oxy]phenyl]-6-methylpyridazine-3-carboxamide]: the half-maximal inhibitory concentration (IC50) in assay [1], in assay [2], in assay [3] and in assay [4] was less than 0.1 µM in each case.
On to `Cc1ccc2nccc(Oc3ccc(NC(=O)c4c(C)nc(C)c(-c5ccc(F)cc5C)c4O)cc3F)c2n1` [Compound 506, N-[3-fluoro-4-[(6-methyl-1,5-naphthyridin-4-yl)oxy]phenyl]-5-(4-fluoro-2-methylphenyl)-4-hydroxy-2,6-dimethylpyridine-3-carboxamide], for which the IC50 in assay [1] was less than 0.1 µM; in assay [2], more than 0.3 µM; in assay [3], less than 0.1 µM; in assay [4] it was less than 0.1 µM.
Take `COc1ccc2nccc(Oc3ccc(NC(=O)c4c(C)n(C)cc(-c5ccc(F)cc5C)c4=O)cc3F)c2n1` [Compound 483, N-[3-fluoro-4-[(6-methoxy-1,5-naphthyridin-4-yl)oxy]phenyl]-5-(4-fluoro-2-methylphenyl)-1,2-dimethyl-4-oxopyridine-3-carboxamide]: the IC50 is less than 0.1 µM in assay [1], more than 0.3 µM in assay [2], 0.1 to 0.3 µM in assay [3] and more than 0.3 µM in assay [4].
Turning to `COc1ccc2nccc(Oc3ccc(NC(=O)c4cn(C)c(CF)c(-c5ccc(F)cc5)c4=O)cc3F)c2n1` [Compound 561, N-[3-Fluoro-4-[(6-methoxy-1,5-naphthyridin-4-yl)oxy]phenyl]-6-(fluoromethyl)-5-(4-fluorophenyl)-1-methyl-4-oxopyridine-3-carboxamide], the IC50 was less than 0.1 µM in assay [1], more than 0.3 µM in assay [2], less than 0.1 µM in assay [3] and more than 0.3 µM in assay [4].
On to `CNc1nccc2c(Oc3ccc(NC(=O)c4cnc(C)n(-c5ccc(F)cc5)c4=O)cc3)ccnc12` [Compound 543, 1-(4-fluorophenyl)-2-methyl-N-[4-[[8-(methylamino)-1,7-naphthyridin-4-yl)oxy]phenyl]-6-oxopyrimidine-5-carboxamide], for which the half-inhibitory concentration (IC50) in assay [1] was less than 0.1 µM; in assay [2], more than 0.3 µM; in assay [3], less than 0.1 µM; in assay [4], 0.1 to 0.3 µM.
